These results are taken from patent US20240226005A1, “NANO- AND MICRO-FORMULATIONS” (Huxley Health Inc., priority 2023, published 2024).

Molecules are shown by their SMILES. Entries after “also recorded” stand apart in the source; their conditions may differ.

For data set [1], the system named is L2, SW982, HCT116, 231 cells. The experiment in a line: Cytotoxicity assay (MTT) on four cell lines. Type of data set: cell-based, rat, human. The conditions noted are these: 48 h, 10- to 10000-fold dilutions of 1 mg/g. The method, then: Four different cell lines were used for the evaluation of the tested formulations and unformulated bufotenin. • L2:Rat lung cells (Normal) https://www.atcc.org/products/ccl-149 • SW982: The human synovial sarcoma cells https://www.atcc.org/products/htb-93 • HCT116: The human colon cancer cells https://www.atcc.org/products/ccl-247 • 231: The human breast cancer cells https://www.atcc.org/products/crm-htb-26
Cytotoxicity assay: The effect of the NEs on cell viability was measured by MTT assay following the method by Mosmann and colleagues. Briefly, the cells were seeded in a 96 well micro titer plate (100 μL per well) with replications. After 24 h, cells were treated with 50 μL of the analyte at four different dilutions (10,100,1000, and 10000-fold), added directly to wells with culture media. The starting concentration for Kolliphor-Bf-SNEDDS, Kolliphor-Bfa-t-SNEDDSand unformulated bufoteninin DMSO were 1 mg·g^−1. After incubation for 48 h, the media was discarded. 100 μL of 0.5 mg·mL^−1 MTT stock solution was added to each well and incubated for 4 h at 37° C. The obtained formazan crystals were solubilized with DMSO, and the absorbance was measured at 570 nm using a microplate reader (SpectraMax M5e, Molecular Devices, USA). Cell viability (%) was calculated as a ratio of absorbance (A570) in treated cells to absorbance in control cells (intact cells without treatment) (A570).

Data set [2] has as its system human glioma U251 GBM cells. In words: Cellular uptake, flow cytometry and fluorescence microscopy. The conditions noted are these: flow cytometry and fluorescence imaging. Type of data set: cell-based. Here is the method: Cellular uptake studies: The human glioma U251 GBM cells were cultured at 5×10^4 cells per well in 12 plates using EMEM media supplemented with 10% FBS, 0.5% PenStrep and 1% w/non-essential amino acids (NEAA); then, washed with 0.05% trypsin. The cells were cells were incubated overnight at 37° C. in a humidified 5% CO2 atmosphere. The cells were treated with NEs loaded with bufotenine and Nile Red dye diluted to 0.1 mg/ml in PBS. Untreated cells were used as a negative control a long with a solution of unformulated API and Nile Red. This was done to serve as a sort of a positive control against the negative control of the untreated cells. After 24 h exposure, cells were washed twice with PBS and then collected in PBS-EDTA media (2 mM). The flow cytometry was performed using a BD C6 Flow Cytometry apparatus at a wavelength of 488 nm laser. For each experiment 10,000 cells were gated per sample and each sample was performed in triplicate. These cells prepared as such were used for fluorescence analysis. Fluorescence images were taken using a Leica CRT 6500 at the desired magnification using Texas Red Set (Leica TX2 ET Set) filter and exciting the samples using a continuous wave Ar+ laser at 488 nm.

As to `CN(C)CCc1c[nH]c2ccc(O)cc12` [unformulated bufotenin, 5-Hydroxy-N,N-dimethyltryptamine], the “cytotoxicity / cell viability” value in data set [1] is on record as “no effect on their viability”. Also, in data set [2], the “cellular uptake (in words)” value is recorded as “no unformulated bufotenin penetrated the glioma cells; also recorded: negligible”.
